Measured values: publication PMC3927474, “Whole body synthesis rates of DHA from α-linolenic acid are greater than brain DHA accretion and uptake rates in adult rats” (Journal of Lipid Research, 2014)

Experiments:
Experiment in all cases: Brain gene expression (TLDA qPCR)
Type in all cases: in vivo, rat
Conditions in all cases: 15 wk diet; control diet = 1
[1] = test system: heme oxygenase 1
Protocol: (§1) RNA was extracted from the flash-frozen half brains of the 15 week postweaning rats. The brain was briefly thawed and dissected to isolate the brainstem, cerebellum, cortex, hippocampus, striatum, and the rest of the brain. RNA was extracted from the brain regions using Trizol reagent (Ambion; Life Technologies, Burlington, ON, Canada) according to the manufacturer's protocol. […] Chloroform was added to the Trizol reagent at a ratio of 1:5 (chloroform:Trizol reagent) and the solution was mixed and incubated at room temperature. The solution was then centrifuged at 12,000 g for 15 min at 4°C. […] The samples were then centrifuged at 12,000 g for 10 min at 4°C to precipitate the RNA pellet. […] The pellet was allowed to air dry, and was then dissolved in RNase-free water. A Nanodrop 1000 (NanoDrop Technologies Inc., Wilmington, DE) was used to determine the concentration and purity of each sample by measuring absorbance at 260 and 280 nm. Each sample was aliquoted to make 1 μg of RNA per 10 μl of sample and stored at -80°C. A high-capacity cDNA reverse transcription kit (Applied Biosystems, Burlington, ON, Canada) was used to reverse transcribe 1 μg of RNA according to the manufacturer's instructions. Newly synthesized cDNA was stored at -20°C until the following day when it was loaded onto TaqMan low density array (TLDA) plates. Quantitative real-time PCR was performed using TLDA (Applied Biosystems) on the 7900HT real-time PCR system (Applied Biosystems). cDNA (50 ng) was diluted with water to make a volume of 50 μl and mixed with 50 μl of TaqMan Universal PCR Master Mix (Applied Biosystems). The mixture was then loaded onto a customized preconfigured 384-well TLDA plate according to the manufacturer's protocol. TaqMan gene expression assays were used to assess 21 genes that were previously reported to be differentially expressed with n-3 deprivation. […] All genes were normalized to phosphoglycerate kinase 1. Similar results were found when normalizing to β-actin or 18S rRNA.

[2] = test system: retnoid X receptor α
Protocol: as §1

[3] = test system: group 6 iPLA2
Protocol: as §1

[4] = test system: group 4 cPLA2
Protocol: as §1

[5] = test system: retinoic acid receptor α
Protocol: as §1

[6] = test system: epidermal growth factor receptor
Protocol: as §1

[7] = test system: β-actin
Protocol: as §1

[8] = test system: prostaglandin E synthase 3
Protocol: as §1

[9] = test system: brain-derived neurotrophic factor
Protocol: as §1

[10] = test system: group 2a sPLA2
Protocol: as §1

[11] = test system: dopamine receptor D2
Protocol: as §1

[12] = test system: retnoid X receptor β
Protocol: as §1

[13] = test system: tyrosine hydroxylase
Protocol: as §1

[14] = test system: PPARg
Protocol: as §1

[15] = test system: COX-2
Protocol: as §1

[16] = test system: uncoupling protein 2
Protocol: as §1

Question: For CC/C=C\C/C=C\C/C=C\CCCCCCCC(=O)O [ALA, α-linolenic acid], which “Brainstem gene expression: HO1” value [1] is on record?
Answer: 1.01 RQ

Question: What about the “Cerebellum gene expression: HO1” value [1] of the same compound?
Answer: 1.21 RQ

Question: What about the “Cortex gene expression: HO1” value [1] of the same compound?
Answer: 1.05 RQ

Question: And the “Hippocampus gene expression: HO1” value [1]?
Answer: 1.01 RQ

Question: What about the “Rest of brain gene expression: HO1” value [1] of the same compound?
Answer: 1.00 RQ

Question: And the “Striatum gene expression: HO1” value [1]?
Answer: 1.09 RQ

Question: And the “Brainstem gene expression: RXRa” value [2]?
Answer: 0.99 RQ

Question: What about the “Cerebellum gene expression: RXRa” value [2] of the same compound?
Answer: 1.15 RQ

Question: What about the “Cortex gene expression: RXR a” value [2] of the same compound?
Answer: 1.02 RQ

Question: And the “Hippocampus gene expression: RXR a” value [2]?
Answer: 1.08 RQ

Question: And the “Rest of brain gene expression: RXR a” value [2]?
Answer: 1.05 RQ

Question: And the “Striatum gene expression: RXRa” value [2]?
Answer: 1.14 RQ

Question: And the “Brainstem gene expression: iPLA2” value [3]?
Answer: 0.89 RQ

Question: And the “Cerebellum gene expression: iPLA2” value [3]?
Answer: 1.02 RQ

Question: And the “Cortex gene expression: iPLA2” value [3]?
Answer: 0.92 RQ

Question: And the “Hippocampus gene expression: iPLA2” value [3]?
Answer: 1.02 RQ

Question: And the “Rest of brain gene expression: iPLA2” value [3]?
Answer: 0.95 RQ

Question: What about the “Striatum gene expression: iPLA2” value [3] of the same compound?
Answer: 0.96 RQ

Question: What about the “Brainstem gene expression: cPLA2” value [4] of the same compound?
Answer: 0.98 RQ

Question: What about the “Cerebellum gene expression: cPLA2” value [4] of the same compound?
Answer: 1.17 RQ

Question: What about the “Cortex gene expression: cPLA2” value [4] of the same compound?
Answer: 0.93 RQ

Question: And the “Hippocampus gene expression: cPLA2” value [4]?
Answer: 1.10 RQ

Question: What about the “Rest of brain gene expression: cPLA2” value [4] of the same compound?
Answer: 0.85 RQ

Question: And the “Striatum gene expression: cPLA2” value [4]?
Answer: 1.04 RQ

Question: And the “Brainstem gene expression: RARa” value [5]?
Answer: 1.00 RQ

Question: What about the “Cerebellum gene expression: RARa” value [5] of the same compound?
Answer: 1.07 RQ

Question: And the “Cortex gene expression: RAR a” value [5]?
Answer: 1.03 RQ

Question: What about the “Hippocampus gene expression: RAR a” value [5] of the same compound?
Answer: 0.96 RQ

Question: And the “Rest of brain gene expression: RAR a” value [5]?
Answer: 0.91 RQ

Question: And the “Striatum gene expression: RARa” value [5]?
Answer: 0.93 RQ

Question: What about the “Brainstem gene expression: EGFR” value [6] of the same compound?
Answer: 1.05 RQ

Question: What about the “Cerebellum gene expression: EGFR” value [6] of the same compound?
Answer: 1.26 RQ

Question: And the “Cortex gene expression: EGFR” value [6]?
Answer: 0.94 RQ

Question: And the “Hippocampus gene expression: EGFR” value [6]?
Answer: 1.10 RQ

Question: What about the “Rest of brain gene expression: EGFR” value [6] of the same compound?
Answer: 1.06 RQ

Question: What about the “Striatum gene expression: EGFR” value [6] of the same compound?
Answer: 1.00 RQ

Question: And the “Brainstem gene expression: b-actin” value [7]?
Answer: 1.11 RQ

Question: And the “Cerebellum gene expression: b actin” value [7]?
Answer: 1.10 RQ

Question: And the “Cortex gene expression: b actin” value [7]?
Answer: 1.05 RQ

Question: And the “Hippocampus gene expression: B-actin” value [7]?
Answer: 1.13 RQ

Question: What about the “Rest of brain gene expression: b actin” value [7] of the same compound?
Answer: 1.00 RQ

Question: What about the “Striatum gene expression: b actin” value [7] of the same compound?
Answer: 1.04 RQ

Question: What about the “Brainstem gene expression: PGES3” value [8] of the same compound?
Answer: 1.14 RQ

Question: What about the “Cerebellum gene expression: PGES3” value [8] of the same compound?
Answer: 1.09 RQ

Question: What about the “Cortex gene expression: PGES3” value [8] of the same compound?
Answer: 0.91 RQ

Question: What about the “Hippocampus gene expression: PGES3” value [8] of the same compound?
Answer: 1.00 RQ

Question: What about the “Rest of brain gene expression: PGES3” value [8] of the same compound?
Answer: 0.99 RQ

Question: And the “Striatum gene expression: PGES3” value [8]?
Answer: 0.95 RQ

Question: And the “Brainstem gene expression: BDNF” value [9]?
Answer: 0.72 RQ

Question: And the “Cerebellum gene expression: BDNF” value [9]?
Answer: 0.98 RQ

Question: And the “Cortex gene expression: BDNF” value [9]?
Answer: 1.03 RQ

Question: And the “Hippocampus gene expression: BDNF” value [9]?
Answer: 1.03 RQ

Question: And the “Rest of brain gene expression: BDNF” value [9]?
Answer: 0.99 RQ

Question: What about the “Striatum gene expression: BDNF” value [9] of the same compound?
Answer: 1.01 RQ

Question: And the “Brainstem gene expression: sPLA2” value [10]?
Answer: 0.72 RQ

Question: What about the “Cerebellum gene expression: sPLA2” value [10] of the same compound?
Answer: 0.86 RQ

Question: What about the “Cortex gene expression: spla2” value [10] of the same compound?
Answer: 0.85 RQ

Question: What about the “Hippocampus gene expression: sPLA2” value [10] of the same compound?
Answer: 1.08 RQ

Question: What about the “Rest of brain gene expression: sPLA2” value [10] of the same compound?
Answer: 0.67 RQ

Question: And the “Striatum gene expression: sPLA2” value [10]?
Answer: 0.46 RQ

Question: And the “Brainstem gene expression: DR D2” value [11]?
Answer: 0.96 RQ

Question: And the “Cerebellum gene expression: DR D2” value [11]?
Answer: 1.13 RQ

Question: And the “Cortex gene expression: DR D2” value [11]?
Answer: 1.11 RQ

Question: What about the “Hippocampus gene expression: DR D2” value [11] of the same compound?
Answer: 1.27 RQ

Question: And the “Rest of brain gene expression: DR D2” value [11]?
Answer: 1.00 RQ

Question: What about the “Striatum gene expression: DR D2” value [11] of the same compound?
Answer: 1.20 RQ

Question: And the “Brainstem gene expression: RXRb” value [12]?
Answer: 1.15 RQ

Question: And the “Cerebellum gene expression: RXRb” value [12]?
Answer: 1.04 RQ

Question: And the “Cortex gene expression: RXR b” value [12]?
Answer: 1.02 RQ

Question: What about the “Hippocampus gene expression: RXR b” value [12] of the same compound?
Answer: 0.97 RQ

Question: What about the “Rest of brain gene expression: RXR b” value [12] of the same compound?
Answer: 0.91 RQ

Question: And the “Striatum gene expression: RXRb” value [12]?
Answer: 1.10 RQ

Question: What about the “Brainstem gene expression: TH” value [13] of the same compound?
Answer: 1.24 RQ

Question: And the “Cerebellum gene expression: TH” value [13]?
Answer: 1.60 RQ

Question: And the “Cortex gene expression: TH” value [13]?
Answer: 1.56 RQ

Question: And the “Hippocampus gene expression: TH” value [13]?
Answer: 1.15 RQ

Question: And the “Rest of brain gene expression: TH” value [13]?
Answer: 1.09 RQ

Question: What about the “Striatum gene expression: TH” value [13] of the same compound?
Answer: 1.12 RQ

Question: And the “Brainstem gene expression: PPARg” value [14]?
Answer: 0.91 RQ

Question: And the “Cerebellum gene expression: PPARg” value [14]?
Answer: 1.17 RQ

Question: What about the “Cortex gene expression: PPARg” value [14] of the same compound?
Answer: 1.21 RQ

Question: And the “Hippocampus gene expression: PPARγ” value [14]?
Answer: 0.47 RQ

Question: And the “Rest of brain gene expression: PPARg” value [14]?
Answer: 1.18 RQ

Question: What about the “Striatum gene expression: PPARg” value [14] of the same compound?
Answer: 0.90 RQ

Question: What about the “Brainstem gene expression: COX 2” value [15] of the same compound?
Answer: 0.87 RQ

Question: And the “Cerebellum gene expression: COX 2” value [15]?
Answer: 1.46 RQ

Question: And the “Cortex gene expression: COX 2” value [15]?
Answer: 1.17 RQ

Question: What about the “Hippocampus gene expression: COX 2” value [15] of the same compound?
Answer: 1.15 RQ

Question: And the “Rest of brain gene expression: COX 2” value [15]?
Answer: 0.92 RQ

Question: And the “Striatum gene expression: COX 2” value [15]?
Answer: 1.04 RQ

Question: And the “Brainstem gene expression: UCP2” value [16]?
Answer: 1.05 RQ

Question: What about the “Cerebellum gene expression: UCP2” value [16] of the same compound?
Answer: 1.17 RQ

Question: What about the “Cortex gene expression: UCP2” value [16] of the same compound?
Answer: 1.04 RQ

Question: What about the “Hippocampus gene expression: UCP2” value [16] of the same compound?
Answer: 1.26 RQ

Question: What about the “Rest of brain gene expression: UCP2” value [16] of the same compound?
Answer: 0.97 RQ

Question: What about the “Striatum gene expression: UCP2” value [16] of the same compound?
Answer: 1.09 RQ
